Columns and labels:
Settings in all cases: Compound concentration 10.0 uM
[1] = molecular target: 5-hydroxytryptamine receptor 1A (Homo sapiens) (UniProt P08908)
[2] = molecular target: 5-hydroxytryptamine receptor 1B (Homo sapiens) (UniProt P28222)
[3] = molecular target: 5-hydroxytryptamine receptor 2A (Homo sapiens) (UniProt P28223)
[4] = molecular target: 5-hydroxytryptamine receptor 2B (Homo sapiens) (UniProt P41595)
[5] = molecular target: 5-hydroxytryptamine receptor 2C (Homo sapiens) (UniProt P28335)
[6] = molecular target: 5-hydroxytryptamine receptor 3A (Homo sapiens) (UniProt P46098)
[7] = molecular target: 5-hydroxytryptamine receptor 5A (Homo sapiens) (UniProt P47898)
[8] = molecular target: 5-hydroxytryptamine receptor 6 (Homo sapiens) (UniProt P50406)
[9] = molecular target: 5-hydroxytryptamine receptor 7 (Homo sapiens) (UniProt P34969)
[10] = molecular target: D(2) dopamine receptor (Homo sapiens) (UniProt P14416)
[11] = molecular target: D(3) dopamine receptor (Homo sapiens) (UniProt P35462)
[12] = molecular target: D(4) dopamine receptor (Homo sapiens) (UniProt P21917)
[13] = molecular target: D(1B) dopamine receptor (Homo sapiens) (UniProt P21918)
[14] = molecular target: Sodium-dependent serotonin transporter (Homo sapiens) (UniProt P31645)
[15] = molecular target: Sodium-dependent noradrenaline transporter (Homo sapiens) (UniProt P23975)
[16] = molecular target: Sodium-dependent dopamine transporter (Homo sapiens) (UniProt Q01959)
[17] = molecular target: Mu-type opioid receptor (Homo sapiens) (UniProt P35372)
[18] = molecular target: Delta-type opioid receptor (Homo sapiens) (UniProt P41143)
[19] = molecular target: Kappa-type opioid receptor (Homo sapiens) (UniProt P41145)
[20] = molecular target: T1, GABA-A receptor; anion channel (Rattus norvegicus) (UniProt O09028+P15431+P18506+P18508+P19969+P20236+P23574+P23576+P28471+P28473+P30191+P62813+P63079+P63138+Q91ZM7+Q9ES14)
[21] = molecular target: Histamine H1 receptor (Homo sapiens) (UniProt P35367)
[22] = molecular target: Histamine H2 receptor (Homo sapiens) (UniProt P25021)
[23] = molecular target: Histamine H4 receptor (Homo sapiens) (UniProt Q9H3N8)
[24] = molecular target: Alpha-1A adrenergic receptor (Homo sapiens) (UniProt P35348)
[25] = molecular target: Alpha-1B adrenergic receptor (Homo sapiens) (UniProt P35368)
[26] = molecular target: Alpha-2A adrenergic receptor (Homo sapiens) (UniProt P08913)
[27] = molecular target: Alpha-2B adrenergic receptor (Homo sapiens) (UniProt P18089)
[28] = molecular target: Alpha-2C adrenergic receptor (Homo sapiens) (UniProt P18825)
[29] = molecular target: Beta-1 adrenergic receptor (Homo sapiens, UniProt P08588)
[30] = molecular target: Beta-2 adrenergic receptor (Homo sapiens) (UniProt P07550)
[31] = molecular target: Muscarinic acetylcholine receptor M2 (Homo sapiens) (UniProt P08172)
[32] = molecular target: Muscarinic acetylcholine receptor M3 (Homo sapiens) (UniProt P20309)
[33] = molecular target: Muscarinic acetylcholine receptor M4 (Homo sapiens) (UniProt P08173)
[34] = molecular target: Muscarinic acetylcholine receptor M5 (Homo sapiens) (UniProt P08912)
[35] = molecular target: Beta-3 adrenergic receptor (Homo sapiens) (UniProt P13945)
[36] = molecular target: T1, GABA-A receptor; anion channel (Rattus norvegicus); remark: listed apart in the source
[37] = molecular target: Alpha-1D adrenergic receptor (Homo sapiens) (UniProt P25100)
[38] = molecular target: Sigma intracellular receptor 2 (Homo sapiens) (UniProt Q5BJF2)

Measured: inhibition

5-hydroxytryptamine receptor 2C (Homo sapiens), sequence (P28335 whole entry): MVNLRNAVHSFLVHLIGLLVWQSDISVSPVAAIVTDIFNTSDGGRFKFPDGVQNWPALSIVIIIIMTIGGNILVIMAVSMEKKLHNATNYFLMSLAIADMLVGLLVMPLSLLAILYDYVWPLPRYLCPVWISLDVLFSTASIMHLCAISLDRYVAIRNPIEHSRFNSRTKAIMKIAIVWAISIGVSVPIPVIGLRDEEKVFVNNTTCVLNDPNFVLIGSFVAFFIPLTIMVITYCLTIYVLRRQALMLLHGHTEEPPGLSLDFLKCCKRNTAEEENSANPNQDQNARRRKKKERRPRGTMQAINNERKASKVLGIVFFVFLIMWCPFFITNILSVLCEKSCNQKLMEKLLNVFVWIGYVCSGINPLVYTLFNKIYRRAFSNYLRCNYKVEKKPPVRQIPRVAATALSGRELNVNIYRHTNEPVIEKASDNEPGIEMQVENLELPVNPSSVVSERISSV
Histamine H4 receptor (Homo sapiens), sequence (Q9H3N8 whole entry): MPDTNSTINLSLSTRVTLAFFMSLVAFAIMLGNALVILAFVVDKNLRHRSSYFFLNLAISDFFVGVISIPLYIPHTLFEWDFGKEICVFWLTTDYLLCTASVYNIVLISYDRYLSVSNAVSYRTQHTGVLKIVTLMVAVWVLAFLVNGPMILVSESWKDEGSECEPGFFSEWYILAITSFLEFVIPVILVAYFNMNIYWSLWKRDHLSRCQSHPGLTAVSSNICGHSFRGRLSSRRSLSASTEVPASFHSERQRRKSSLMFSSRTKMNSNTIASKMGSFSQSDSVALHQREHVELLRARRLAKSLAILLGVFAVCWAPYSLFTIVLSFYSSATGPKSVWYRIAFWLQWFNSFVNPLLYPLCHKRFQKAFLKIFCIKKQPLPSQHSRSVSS
5-hydroxytryptamine receptor 1A (Homo sapiens), sequence (P08908 whole entry): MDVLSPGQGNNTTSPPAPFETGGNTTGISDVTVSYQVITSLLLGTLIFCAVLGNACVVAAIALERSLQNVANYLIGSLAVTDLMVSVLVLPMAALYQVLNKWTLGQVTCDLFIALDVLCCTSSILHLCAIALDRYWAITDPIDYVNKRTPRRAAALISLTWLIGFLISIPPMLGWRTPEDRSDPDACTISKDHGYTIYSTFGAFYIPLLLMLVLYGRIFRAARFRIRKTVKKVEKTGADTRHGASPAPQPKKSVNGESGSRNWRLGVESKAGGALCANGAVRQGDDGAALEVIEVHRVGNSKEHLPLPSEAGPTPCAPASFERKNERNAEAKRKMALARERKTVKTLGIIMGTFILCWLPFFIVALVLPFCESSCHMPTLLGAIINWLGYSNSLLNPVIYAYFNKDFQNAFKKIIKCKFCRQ
Kappa-type opioid receptor (Homo sapiens), sequence (P41145 whole entry): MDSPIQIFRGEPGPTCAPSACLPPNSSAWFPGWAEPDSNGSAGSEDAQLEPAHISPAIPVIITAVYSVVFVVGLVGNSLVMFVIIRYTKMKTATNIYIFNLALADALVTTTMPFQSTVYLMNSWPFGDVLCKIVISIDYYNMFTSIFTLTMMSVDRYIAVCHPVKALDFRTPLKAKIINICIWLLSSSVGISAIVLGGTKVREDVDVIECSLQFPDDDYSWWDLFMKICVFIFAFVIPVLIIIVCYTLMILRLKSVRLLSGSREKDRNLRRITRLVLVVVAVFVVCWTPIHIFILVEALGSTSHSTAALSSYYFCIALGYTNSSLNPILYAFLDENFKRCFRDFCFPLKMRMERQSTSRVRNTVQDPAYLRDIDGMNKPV
Histamine H1 receptor (Homo sapiens), sequence (P35367 whole entry): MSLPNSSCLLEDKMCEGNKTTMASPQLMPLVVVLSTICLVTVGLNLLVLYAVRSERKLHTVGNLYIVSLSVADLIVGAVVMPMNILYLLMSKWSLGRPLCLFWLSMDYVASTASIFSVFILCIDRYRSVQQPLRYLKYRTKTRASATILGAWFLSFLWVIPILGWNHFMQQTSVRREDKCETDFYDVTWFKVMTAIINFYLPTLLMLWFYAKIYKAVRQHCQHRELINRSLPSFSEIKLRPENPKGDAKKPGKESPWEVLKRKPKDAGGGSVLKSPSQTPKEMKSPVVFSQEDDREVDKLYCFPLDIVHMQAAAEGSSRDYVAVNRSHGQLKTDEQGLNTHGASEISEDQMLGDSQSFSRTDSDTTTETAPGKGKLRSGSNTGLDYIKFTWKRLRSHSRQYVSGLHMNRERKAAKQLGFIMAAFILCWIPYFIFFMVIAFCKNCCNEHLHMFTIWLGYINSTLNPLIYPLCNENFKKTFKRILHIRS
Mu-type opioid receptor (Homo sapiens), sequence (P35372 whole entry): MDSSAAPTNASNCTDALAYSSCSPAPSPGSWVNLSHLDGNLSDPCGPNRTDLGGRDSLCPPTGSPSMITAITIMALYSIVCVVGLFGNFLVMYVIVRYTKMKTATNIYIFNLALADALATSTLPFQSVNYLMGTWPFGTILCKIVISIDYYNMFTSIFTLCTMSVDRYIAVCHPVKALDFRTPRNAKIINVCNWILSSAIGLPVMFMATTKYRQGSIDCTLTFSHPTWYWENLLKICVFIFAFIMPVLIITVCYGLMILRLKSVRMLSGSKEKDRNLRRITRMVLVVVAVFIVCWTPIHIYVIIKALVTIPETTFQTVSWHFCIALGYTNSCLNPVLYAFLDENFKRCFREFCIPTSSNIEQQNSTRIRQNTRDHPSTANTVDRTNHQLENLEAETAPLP
D(4) dopamine receptor (Homo sapiens), sequence (P21917 whole entry): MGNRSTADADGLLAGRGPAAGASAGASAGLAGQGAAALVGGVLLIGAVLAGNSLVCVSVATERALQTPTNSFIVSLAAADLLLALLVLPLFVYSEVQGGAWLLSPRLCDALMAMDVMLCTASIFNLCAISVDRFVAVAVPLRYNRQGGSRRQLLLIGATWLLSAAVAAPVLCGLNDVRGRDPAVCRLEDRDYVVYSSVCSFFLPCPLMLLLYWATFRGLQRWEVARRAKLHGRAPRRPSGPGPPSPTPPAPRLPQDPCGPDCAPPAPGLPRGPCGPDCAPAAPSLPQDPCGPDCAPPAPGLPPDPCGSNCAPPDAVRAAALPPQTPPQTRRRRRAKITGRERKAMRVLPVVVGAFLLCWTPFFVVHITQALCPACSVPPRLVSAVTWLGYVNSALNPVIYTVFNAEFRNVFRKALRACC
5-hydroxytryptamine receptor 3A (Homo sapiens), sequence (P46098 whole entry): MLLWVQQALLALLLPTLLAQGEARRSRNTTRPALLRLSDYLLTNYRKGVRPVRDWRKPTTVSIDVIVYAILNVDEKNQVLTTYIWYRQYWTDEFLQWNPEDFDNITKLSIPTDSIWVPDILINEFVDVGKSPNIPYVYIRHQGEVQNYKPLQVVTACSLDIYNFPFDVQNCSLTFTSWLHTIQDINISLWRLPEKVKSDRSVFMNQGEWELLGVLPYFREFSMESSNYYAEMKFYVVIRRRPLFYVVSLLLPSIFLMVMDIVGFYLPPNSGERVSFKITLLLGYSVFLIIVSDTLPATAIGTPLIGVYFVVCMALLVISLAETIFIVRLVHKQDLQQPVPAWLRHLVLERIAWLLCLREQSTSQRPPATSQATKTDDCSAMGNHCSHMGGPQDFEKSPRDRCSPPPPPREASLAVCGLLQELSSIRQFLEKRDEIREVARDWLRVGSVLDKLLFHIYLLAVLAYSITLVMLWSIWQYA
Histamine H2 receptor (Homo sapiens), sequence (P25021 whole entry): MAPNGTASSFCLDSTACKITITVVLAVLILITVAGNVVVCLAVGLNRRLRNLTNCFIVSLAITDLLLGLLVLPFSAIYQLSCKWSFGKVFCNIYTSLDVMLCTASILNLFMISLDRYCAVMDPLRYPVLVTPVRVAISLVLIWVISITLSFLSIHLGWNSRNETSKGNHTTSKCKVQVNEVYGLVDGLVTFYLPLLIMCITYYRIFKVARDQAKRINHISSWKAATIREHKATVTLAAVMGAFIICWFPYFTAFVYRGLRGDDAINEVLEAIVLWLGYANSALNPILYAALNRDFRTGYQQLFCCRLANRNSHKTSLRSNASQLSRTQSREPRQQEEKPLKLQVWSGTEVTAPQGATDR
Beta-3 adrenergic receptor (Homo sapiens), sequence (P13945 whole entry, looked up): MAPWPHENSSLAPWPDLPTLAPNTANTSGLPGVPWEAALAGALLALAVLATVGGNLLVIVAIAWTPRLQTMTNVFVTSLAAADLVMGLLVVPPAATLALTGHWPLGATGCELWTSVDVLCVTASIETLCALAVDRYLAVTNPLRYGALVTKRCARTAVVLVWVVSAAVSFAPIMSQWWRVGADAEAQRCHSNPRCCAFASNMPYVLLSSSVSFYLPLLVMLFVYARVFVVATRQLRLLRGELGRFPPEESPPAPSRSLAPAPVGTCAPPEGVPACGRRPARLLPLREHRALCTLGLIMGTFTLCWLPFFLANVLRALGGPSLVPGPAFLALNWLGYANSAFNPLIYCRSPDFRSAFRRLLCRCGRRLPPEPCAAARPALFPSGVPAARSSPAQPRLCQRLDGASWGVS
Beta-1 adrenergic receptor, sequence (P08588 whole entry, looked up): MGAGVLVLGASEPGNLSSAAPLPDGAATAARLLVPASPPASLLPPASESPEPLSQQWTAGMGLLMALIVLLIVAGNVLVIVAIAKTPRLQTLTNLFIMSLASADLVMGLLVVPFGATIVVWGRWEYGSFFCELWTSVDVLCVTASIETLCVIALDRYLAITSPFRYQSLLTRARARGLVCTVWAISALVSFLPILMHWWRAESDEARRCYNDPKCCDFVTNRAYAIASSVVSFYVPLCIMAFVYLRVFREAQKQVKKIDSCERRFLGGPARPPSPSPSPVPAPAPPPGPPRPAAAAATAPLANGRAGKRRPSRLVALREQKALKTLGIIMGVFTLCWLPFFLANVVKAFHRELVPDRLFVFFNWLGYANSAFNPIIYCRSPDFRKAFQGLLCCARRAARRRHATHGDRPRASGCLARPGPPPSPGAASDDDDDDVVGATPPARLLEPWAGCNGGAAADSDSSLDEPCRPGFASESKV
Sigma intracellular receptor 2 (Homo sapiens), sequence (Q5BJF2 whole entry): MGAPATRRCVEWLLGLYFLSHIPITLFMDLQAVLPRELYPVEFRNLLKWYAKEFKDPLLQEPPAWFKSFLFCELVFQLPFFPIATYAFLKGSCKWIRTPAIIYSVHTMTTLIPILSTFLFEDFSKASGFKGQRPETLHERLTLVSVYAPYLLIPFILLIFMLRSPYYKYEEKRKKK

CC(=O)C1=C(C)N(c2cccc(C(F)(F)F)c2)C(=O)N[C@H]1c1ccc(C#N)nc1
inactive: [1] 3.63% | [2] 6.75% | [3] -6.25% | [4] 15.8% | [5] 29% | [6] 23.7% | [7] 8.86% | [8] 14.9% | [9] 13.9% | [10] -1.53% | [11] -6.43% | [12] 5.84% | [13] 5.12% | [14] 2.85% | [15] -8.06% | [16] 1.88% | [17] 2.02% | [18] 4.95% | [19] -8.67% | [20] -5.84% | [21] 5.28% | [22] 3.4% | [23] -0.78% | [24] -5.26% | [25] -8.1% | [26] -8.89% | [27] 11.8% | [28] 11% | [29] 8.09% | [30] 21.6% | [31] -9.21% | [32] 27.3% | [33] 2.88% | [34] 2.19% | [35] 17.2% | [36] 14.7% | [37] 7.7% | [38] 20.9%

Source: ChEMBL document CHEMBL4507272 (2021)
